Source: US20250059162A1, “MULTI-PROTEIN DEGRADATION AGENT HAVING IMIDE SKELETON” (SUZHOU KINTOR PHARMACEUTICALS, INC., priority 2021, published 2025)

Tested on: HL60 cells
Test: Anti-proliferation on HL60 cells (CellTiter-Glo, 3 days)
Format: cell-based
Conditions: Homo sapiens, HL-60, 72 h, 3 days incubation, CTG luminescence, IC50 by XLfit, read-out: HL60 cells Proliferation inhibitory activity
Method: HL60 cells (Cell Bank of Chinese Academy of Sciences) in the logarithmic growth phase were counted and plated evenly in a 96-well transparent bottom white plate at 20000 cells per well and 100 μL per well.
A certain amount of the compound of the present invention was weighed and diluted with DMSO to a 10 mM stock solution. The culture medium RPMI-1640 (meilunbio, MA0215) corresponding to the cells were taken, and the compound was diluted to the concentration required by the test, shaken gently and mixed evenly. 50 μL of the gradient dilution of the diluted compound was added to each well of the plated cells, and 50 μL of 0.1% DMSO was added to the control group. The plate was shaken gently, mixed evenly and incubated in a cell culture incubator for 3 days.
• 3.1 The CellTiter-Glo™ (CTG) (purchased from Promega, Cat. No. G9242) reagent was taken in advance from the −20° C. refrigerator and equilibrated to room temperature in the dark. Cell Titer-Glo buffer and Cell Titer-Glo substrate were mixed at a ratio of 1:1 to prepare a CTG detection reagent. • 3.2 The 96-well plate was taken out and inspected under a microscope for growth. • 3.3 The bottom of the 96-well plate was tagged with white paper, and then the plate was wrapped with tin foil paper, shaken at 37° C. at 300 r for 10 min and mixed evenly. • 3.4. 50 μL of CTG detection reagent was added to each well, Luminescence signal was detected using a microplate reader Biotek Synergy Hi, and the inhibition rate was calculated. IC50 values of the compounds were calculated by XLfit 5.5.0 software to evaluate the proliferation inhibitory activity on HL60 cells.

Row | SMILES | IC50
1 | Cc1cccc(-c2cnc(N3CCC(CNCc4ccc5c(c4)CN([C@@H]4CCC(=O)NC4=O)C5=O)CC3)c(C(F)(F)F)c2)c1 [Compound A124] | < 3.04 nM
2 | COc1cc(CNCC2CCN(c3ncc(-c4cccc(Cl)c4)cc3C(F)(F)F)CC2)ccc1C(=O)NC1CCC(=O)NC1=O (centres unmarked) [Compound A161] | 11200 nM
3 | O=C1CCC(N2Cc3cc(C(=O)NCC4CCN(c5ncc(-c6ccc7ccccc7c6)cn5)CC4)ccc3C2=O)C(=O)N1 (centres unmarked) [Compound A39] | 2.6 nM
4 | O=C1CCC(N2Cc3cc(CNCC4(F)CCN(c5ncc(-c6cccc(F)c6)cc5F)CC4)ccc3C2=O)C(=O)N1 (centres unmarked) [Compound A122] | 1.76 nM
5 | O=C1CCC(N2Cc3cc(CNCC4CCN(c5ncc(-c6cccc(Cl)c6)cc5C(F)F)CC4)ccc3C2=O)C(=O)N1 (centres unmarked) [Compound A118] | 3.97 nM
6 | Cc1nc2cc(CNCC3CCN(c4ncc(-c5cccc(Cl)c5)cc4C(F)(F)F)CC3)ccc2c(=O)n1C1CCC(=O)NC1=O (centres unmarked) [Compound A152] | 7320 nM
7 | O=C1CCC(N2Cc3cc(CNCC4(F)CCN(c5ncc(-c6cccc(Cl)c6)cc5F)CC4)ccc3C2=O)C(=O)N1 (centres unmarked) [Compound A84] | 2.6 nM
8 | O=C1CCC(N2Cc3cc(NC(=O)CC4CCN(CC(=O)N5CCCc6ccccc65)CC4)ccc3C2=O)C(=O)N1 (centres unmarked) [Compound A3] | 7.9 nM
9 | O=C1CCC(NC(=O)c2ccc(CNCC3CCN(c4ncc(-c5cccc(Cl)c5)cc4C(F)(F)F)CC3)c(Br)c2)C(=O)N1 (centres unmarked) [Compound A160] | 1100 nM
10 | O=C1CCC(N2Cc3cc(NC(=O)CC4CCN(c5ccc(-c6cccc(Cl)c6)nc5)CC4)ccc3C2=O)C(=O)N1 (centres unmarked) [Compound A57] | < 0.2 nM
11 | CN(C(=O)c1ccc(CNCC2CCN(c3ncc(-c4cccc(Cl)c4)cc3C(F)(F)F)CC2)cc1)C1CCC(=O)NC1=O (centres unmarked) [Compound A163] | 8220 nM
12 | O=C(CN1CCC(CNC(=O)c2ccc3c(c2)CN(C2CCC(=O)NC2=O)C3=O)CC1)NCCn1c2ccccc2c2cccnc21 (centres unmarked) [Compound A7] | 94 nM
13 | O=C(CN1CCC(CNC(=O)c2ccc3c(c2)CN(C2CCC(=O)NC2=O)C3=O)CC1)NCc1cccc2ccccc12 (centres unmarked) [Compound A6] | 192 nM
14 | O=C1CCC(c2coc3ccc(CNCC4CCN(c5ncc(-c6cccc(Cl)c6)cc5C(F)(F)F)CC4)cc23)C(=O)N1 (centres unmarked) [Compound A150] | 3360 nM
15 | O=C1CCC(N2Cc3cc(CNCC4CCN(c5ccc(-c6cccc(Cl)c6)cc5C(F)(F)F)CC4)ccc3C2=O)C(=O)N1 (centres unmarked) [Compound A104] | 20.5 nM
16 | NC(=O)c1cc(-c2cccc(Cl)c2)cnc1N1CCC(CNCc2ccc3c(c2)CN(C2CCC(=O)NC2=O)C3=O)CC1 (centres unmarked) [Compound A99] | 1.2 nM
17 | O=C1CCC(N2Cc3cc(C(=O)NCC4CCN(c5cc(-c6cccc7ccccc67)ccn5)CC4)ccc3C2=O)C(=O)N1 (centres unmarked) [Compound A16] | 1.5 nM
18 | O=C1CCC(N2Cc3c(csc3CNCC3CCN(c4ncc(-c5cccc(Cl)c5)cc4C(F)(F)F)CC3)C2=O)C(=O)N1 (centres unmarked) [Compound A143] | 3040 nM
19 | COc1cccc(-c2cnc(N3CCC(CNCc4scc5c4CN(C4CCC(=O)NC4=O)C5=O)CC3)c(C(F)(F)F)c2)c1 (centres unmarked) [Compound A144] | 752 nM

Row | SMILES | IC50
20 | O=C(CC1CCN(c2ncc(-c3cccc4ccccc34)cn2)CC1)Nc1ccc2c(c1)CN(C1CCC(=O)N(COP(=O)(O)O)C1=O)C2=O (centres unmarked) [Compound A117] | 12 nM
21 | O=C1CC[C@H](N2Cc3cc(CNCC4(F)CCN(c5ncc(-c6cccc(Cl)c6)cc5C(F)(F)F)CC4)ccc3C2=O)C(=O)N1 [Compound A127] | 6.75 nM
22 | O=C1CCC(N2Cc3cc(CNCC4CCN(c5ncc(-c6cc(F)cc(Cl)c6)cc5C(F)(F)F)CC4)ccc3C2=O)C(=O)N1 (centres unmarked) [Compound A115] | 1.5 nM
23 | O=C1CCC(c2cn3cc(CNCC4CCN(c5ncc(-c6cccc(Cl)c6)cc5C(F)(F)F)CC4)ccc3n2)C(=O)N1 (centres unmarked) [Compound A148] | 8520 nM
24 | O=C1CCC(N2Cc3cc(CNCC4CCN(c5ncc(-n6c7ccccc7c7ccccc76)cc5C(F)(F)F)CC4)ccc3C2=O)C(=O)N1 (centres unmarked) [Compound A129] | 120 nM
25 | O=C1CCC(N2Cc3cc(C(=O)NCC4CCN(c5ccc(-c6cccc7ccccc67)cn5)CC4)ccc3C2=O)C(=O)N1 (centres unmarked) [Compound A34] | < 0.2 nM
26 | O=C1CCC(N2Cc3cc(C(=O)NCC4CCN(c5ccc(-c6nccc7ccccc67)cn5)CC4)ccc3C2=O)C(=O)N1 (centres unmarked) [Compound A45] | < 0.2 nM
27 | O=C1CCC(N2Cc3cc(NC(=O)CC4CCN(c5ncc(-c6cccc7cccc(F)c67)s5)CC4)ccc3C2=O)C(=O)N1 (centres unmarked) [Compound A26] | < 0.2 nM
28 | O=C1CCC(n2nc3cc(CNCC4CCN(c5ncc(-c6cccc(F)c6)cc5F)CC4)ccn3c2=O)C(=O)N1 (centres unmarked) [Compound A147] | 12300 nM
29 | O=C1CCC(NC(=O)c2ccc(CNCC3CCN(c4ncc(-c5cccc(Cl)c5)cc4C(F)(F)F)CC3)cc2)C(=O)N1 (centres unmarked) [Compound A155] | 825 nM
30 | O=C1CCC(N2Cc3cc(NC(=O)CC4CCN(c5ccc(-c6nccc7ccccc67)cn5)CC4)ccc3C2=O)C(=O)N1 (centres unmarked) [Compound A46] | < 0.2 nM
31 | O=C1CCC(N2Cc3cc(NC(=O)CC4CCN(C(=O)NCc5cccc6ccccc56)CC4)ccc3C2=O)C(=O)N1 (centres unmarked) [Compound A1] | 190 nM
32 | CC(C)c1cnc(N2CCC(CC(=O)Nc3ccc4c(c3)CN(C3CCC(=O)NC3=O)C4=O)CC2)nc1 (centres unmarked) [Compound A50] | 0.6 nM
33 | O=C(CN1CCC(CC(=O)Nc2ccc3c(c2)CN(C2CCC(=O)NC2=O)C3=O)CC1)NCc1cccc2ccccc12 (centres unmarked) [Compound A5] | 10 nM
34 | O=C1CCC(N2Cc3cc(NC(=O)CC4CCN(c5cnc(-c6cccc7ccccc67)s5)CC4)ccc3C2=O)C(=O)N1 (centres unmarked) [Compound A25] | 0.3 nM
35 | O=C1CCC(N2Cc3cc(NC(=O)CC4CCN(c5ccc(-c6cccc7ccccc67)cn5)CC4)ccc3C2=O)C(=O)N1 (centres unmarked) [Compound A35] | < 0.2 nM
36 | O=C1CCC(N2Cc3cc(NC(=O)CC4CCN(c5cccc(-c6cccc7ccccc67)n5)CC4)ccc3C2=O)C(=O)N1 (centres unmarked) [Compound A15] | 1 nM
37 | O=C1CCC(N2Cc3cc(C(=O)NCC4CCN(c5ccc(-c6cccc7ccccc67)nc5)CC4)ccc3C2=O)C(=O)N1 (centres unmarked) [Compound A36] | 0.3 nM
38 | O=C1CCC(N2Cc3cc(OCCC4CCN(c5ncc(-c6cccc(Cl)c6)cc5C(F)(F)F)CC4)ccc3C2=O)C(=O)N1 (centres unmarked) [Compound A133] | 175 nM

Row | SMILES | IC50
39 | O=C1CCC(NC(=O)c2ccc(CNCC3CCN(c4ncc(-c5cccc(Cl)c5)cc4C(F)(F)F)CC3)cn2)C(=O)N1 (centres unmarked) [Compound A156] | 268 nM
40 | O=C1CCC(N2Cc3cc(CNCC4CCN(c5ncc(-c6ccccn6)cc5F)CC4)ccc3C2=O)C(=O)N1 (centres unmarked) [Compound A106] | 878 nM
41 | COc1cccc(-c2cnc(N3CCC(F)(CNCc4ccc5c(c4)CN(C4CCC(=O)NC4=O)C5=O)CC3)c(C(F)(F)F)c2)c1 (centres unmarked) [Compound A121] | 4.69 nM
42 | Cc1cccc(-c2cnc(N3CCC(CNCc4ccc5c(c4)CN([C@H]4CCC(=O)NC4=O)C5=O)CC3)c(C(F)(F)F)c2)c1 [Compound A123] | < 3.04 nM
43 | O=C1CCC(N2Cc3cc(C(=O)NCC4CCN(C(=O)NCCn5c6ccccc6c6cccnc65)CC4)ccc3C2=O)C(=O)N1 (centres unmarked) [Compound A2] | 58 nM
44 | O=C1CC[C@@H](N2Cc3cc(CNCC4(F)CCN(c5ncc(-c6cccc(Cl)c6)cc5C(F)(F)F)CC4)ccc3C2=O)C(=O)N1 [Compound A128] | 9.04 nM
45 | O=C1CCC(N2Cc3cc(NC(=O)CC4CCN(CC(=O)Nc5cccc6ccccc56)CC4)ccc3C2=O)C(=O)N1 (centres unmarked) [Compound A9] | 6 nM
46 | O=C1CCC(N2Cc3nc(CNCC4CCN(c5ncc(-c6cccc(Cl)c6)cc5C(F)(F)F)CC4)ccc3C2=O)C(=O)N1 (centres unmarked) [Compound A141] | 160 nM
47 | O=C1C[C@@H](N2Cc3cc(CNCC4CCN(c5ncc(-c6cccc(F)c6)cc5C(F)(F)F)CC4)ccc3C2=O)C(=O)N1 [Compound A173] | 9370 nM
48 | O=C1C[C@H](N2Cc3cc(CNCC4CCN(c5ncc(-c6cccc(F)c6)cc5F)CC4)ccc3C2=O)C(=O)N1 [Compound A170] | 9860 nM
49 | N#CC1(CNCc2ccc3c(c2)CN(C2CCC(=O)NC2=O)C3=O)CCN(c2ncc(-c3cccc(Cl)c3)cc2C(F)(F)F)CC1 (centres unmarked) [Compound A89] | 9.2 nM
50 | O=C1CCC(NC(=O)c2ccc(C(=O)NCC3CCN(c4ncc(-c5cccc(Cl)c5)cc4C(F)(F)F)CC3)cc2)C(=O)N1 (centres unmarked) [Compound A166] | 2670 nM
51 | COc1cccc(-c2cnc(N3CCC(CCNc4ccc5c(c4)CN(C4CCC(=O)NC4=O)C5=O)CC3)c(C(F)(F)F)c2)c1 (centres unmarked) [Compound A132] | 8.37 nM
52 | O=C1CCC(N2Cc3cc(NC(=O)CC4CCN(c5ccc(-c6ccc7ccccc7c6)cn5)CC4)ccc3C2=O)C(=O)N1 (centres unmarked) [Compound A41] | 0.2 nM
53 | O=C1CCC(N2Cc3cc(CNCC4C5CCC4CN(c4ncc(-c6cccc(Cl)c6)cc4C(F)(F)F)C5)ccc3C2=O)C(=O)N1 (centres unmarked) [Compound A91] | 36.1 nM
54 | O=C1CCC(N2Cc3cc(CNCC4CCN(c5ncc(-c6cccc(Cl)c6)cc5[N+](=O)[O-])CC4)ccc3C2=O)C(=O)N1 (centres unmarked) [Compound A78] | 3 nM
55 | O=C1CCC(NC(=O)c2ccc(CNCC3CCN(c4ncc(-c5cccc(Cl)c5)cc4C(F)(F)F)CC3)cc2F)C(=O)N1 (centres unmarked) [Compound A158] | 6660 nM
56 | O=C1CCC(N2Cc3cc(C(=O)NCC4CCN(c5nccc(-c6cccc7ccccc67)n5)CC4)ccc3C2=O)C(=O)N1 (centres unmarked) [Compound A12] | 4.5 nM
